Assay results as given in US9795646B2, “Boswellia oil, its fractions and compositions for enhancing brain function” (LAILA NUTRACEUTICALS, priority 2010, dated 2017).
Values after ≈ are worked out from the molar mass of the structure shown. Values joined by “and” are separate entries in the source; they are usually repeats but may differ in a detail not shown here. Equal values may be shown once.

Experiments:
[1] = target: Acetylcholinesterase (Homo sapiens, UniProt P22303); assay: Acetylcholinesterase inhibitory activity, in vitro enzymatic assay (Ellman method); format: biochemical; settings: Table 3
Acetylcholinesterase, sequence (P22303 32-614, species assumed): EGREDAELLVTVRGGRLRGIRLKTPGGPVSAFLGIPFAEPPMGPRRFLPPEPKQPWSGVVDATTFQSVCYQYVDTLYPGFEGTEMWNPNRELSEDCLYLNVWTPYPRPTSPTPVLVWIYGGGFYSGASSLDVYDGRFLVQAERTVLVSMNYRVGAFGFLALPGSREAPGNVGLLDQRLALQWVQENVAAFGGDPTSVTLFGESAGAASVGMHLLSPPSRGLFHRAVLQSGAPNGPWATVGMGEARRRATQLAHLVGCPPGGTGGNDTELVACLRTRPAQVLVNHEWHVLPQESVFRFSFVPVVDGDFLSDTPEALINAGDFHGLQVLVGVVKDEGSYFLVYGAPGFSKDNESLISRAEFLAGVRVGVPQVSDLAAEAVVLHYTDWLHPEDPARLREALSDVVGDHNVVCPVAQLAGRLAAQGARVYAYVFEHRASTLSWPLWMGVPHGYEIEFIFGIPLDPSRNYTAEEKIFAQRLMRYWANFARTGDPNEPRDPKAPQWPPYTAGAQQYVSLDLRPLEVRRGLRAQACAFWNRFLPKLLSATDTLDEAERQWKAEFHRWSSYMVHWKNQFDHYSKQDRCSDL
Method: (§1) As a part of developing new agents for improving brain/mental function and alleviating disease conditions related to cognition and memory deficits, a large number of plant extracts have been screened for their inhibitory property on Acetylcholinesterase enzyme activity. The assay was performed in vitro by the method of Ellman et al., with minor modifications, using acetylthiocholine iodide as a substrate (Lee J. H., et. al. Arch Pharm Res 2004, 27(1): 53-56). […] Its acetylcholinesterase inhibitory activity was also evaluated by a cell based in vitro assay in Rat pheochromocytoma PC 12 cells. […] Rat pheochromocytoma PC 12 cells were equally distributed with phenol red free Dulbecco's modified Eagle's red medium (DMEM) (Sigma Life Science, USA) containing 10% fetal bovine serum (FBS) in 24-well plate. […] Thereafter, cells were induced with 1 μg/mL of β-amyloid peptide (Calbiochem, USA) for 24 h at 37° C. After 24 h, cells were collected and washed twice with 1×PBS by centrifugation at 1200 rpm for 5 min at 4° C. The cell extracts were prepared in solubilization buffer and the cell lysates were analyzed for acetylcholine esterase (AChE) activity.
Acetylcholinesterase activity is measured using the substrate acetylthiocholine iodide, which is converted to thiocholine. The reaction of thiocholine with the chromogenic substrate Dithionitrobenzoic acid (DTNB) leads to the formation of a yellow anion, Nitrobenzoic acid, which absorbs strongly at 412 nm. Incubation was done for 10 min.
The AChE assay was performed by the method of Ellman et al, with minor modifications, using acetylthiocholine iodide as a substrate (Lee J. H., et. al. Arch Pharm Res 2004, 27(1): 53-56). Ellmans reaction mixture contains 0.5 mM acetylthiocholine iodide and 1 mM 5,5′-dithio-bis-(2-nitrobenzoic acid) in a 50 mM sodium phosphate buffer (pH 8.0). […] For blanks, enzyme was replaced with phosphate buffer. The reaction mixture was mixed thoroughly, 100 μl of Ellman's reagent was added and incubated at room temperature for 10 min. The absorbance was measured at 412 nm using microplate reader. The percentage inhibition of enzyme activity was calculated by comparing OD's of tests wells with that of control wells using the following formula. Calculations: % inhibition=[(control−sample)/control]×100.

[2] = target: T1, 5-lipoxygenase (5-LOX) (Homo sapiens, UniProt P09917); settings: read-out: IC50 (5-LOX inhibition); cited from earlier work
T1 sequence (P09917 1-674): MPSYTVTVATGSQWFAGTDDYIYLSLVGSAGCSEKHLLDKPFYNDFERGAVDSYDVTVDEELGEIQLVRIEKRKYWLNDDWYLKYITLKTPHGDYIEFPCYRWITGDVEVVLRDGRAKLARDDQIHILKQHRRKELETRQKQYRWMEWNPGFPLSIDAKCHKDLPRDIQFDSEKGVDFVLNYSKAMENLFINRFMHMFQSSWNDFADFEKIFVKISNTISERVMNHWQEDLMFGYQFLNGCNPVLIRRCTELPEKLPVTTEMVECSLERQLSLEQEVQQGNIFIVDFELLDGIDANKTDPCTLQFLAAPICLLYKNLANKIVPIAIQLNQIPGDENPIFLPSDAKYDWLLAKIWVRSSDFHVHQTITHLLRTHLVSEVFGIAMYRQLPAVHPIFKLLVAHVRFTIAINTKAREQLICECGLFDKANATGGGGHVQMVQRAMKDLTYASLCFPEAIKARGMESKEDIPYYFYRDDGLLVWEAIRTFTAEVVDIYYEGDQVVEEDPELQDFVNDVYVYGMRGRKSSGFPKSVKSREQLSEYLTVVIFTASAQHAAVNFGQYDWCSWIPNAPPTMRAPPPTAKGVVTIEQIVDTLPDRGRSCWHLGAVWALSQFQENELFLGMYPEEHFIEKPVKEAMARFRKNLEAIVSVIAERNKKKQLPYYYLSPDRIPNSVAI

[3] = target: T2, acetylcholine esterase (AChE) (Rattus norvegicus, UniProt P37136); assay: Acetylcholine esterase inhibitory activity in β-amyloid peptide induced PC 12 cells; format: cell-based; settings: PC 12 cells
T2 construct: The cell extracts were used as samples for measuring the acetylcholine esterase (AChE) activity; endogenous in cells; host or cells: rat pheochromocytoma PC 12 cells, induced with β-amyloid peptide
T2 sequence (P37136 32-614): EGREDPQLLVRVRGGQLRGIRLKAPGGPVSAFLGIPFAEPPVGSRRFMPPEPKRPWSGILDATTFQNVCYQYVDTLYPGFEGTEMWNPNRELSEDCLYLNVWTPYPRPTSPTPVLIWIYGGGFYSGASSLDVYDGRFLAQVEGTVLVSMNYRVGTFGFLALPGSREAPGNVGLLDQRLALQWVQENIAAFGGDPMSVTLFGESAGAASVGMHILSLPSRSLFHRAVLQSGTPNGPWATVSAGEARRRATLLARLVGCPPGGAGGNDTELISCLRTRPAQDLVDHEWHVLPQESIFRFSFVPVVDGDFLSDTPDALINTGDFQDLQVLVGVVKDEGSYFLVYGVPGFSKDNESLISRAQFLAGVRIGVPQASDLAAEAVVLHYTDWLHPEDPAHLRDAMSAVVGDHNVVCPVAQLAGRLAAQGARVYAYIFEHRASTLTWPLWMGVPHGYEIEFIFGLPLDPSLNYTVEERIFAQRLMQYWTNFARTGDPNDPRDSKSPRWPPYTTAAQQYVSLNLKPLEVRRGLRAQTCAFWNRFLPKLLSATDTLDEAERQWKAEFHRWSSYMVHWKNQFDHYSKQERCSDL
Method: as §1
The inhibitory property on the enzyme activity was assessed in β-amyloid peptide induced-rat pheochromocytoma PC 12 cells. Rat pheochromocytoma PC 12 cells were equally distributed with phenol red free Dulbecco's modified Eagle's red medium (DMEM) (Sigma Life Science, USA) containing 10% fetal bovine serum (FBS) in 24-well plate. […] Thereafter, cells were induced with 1 μg/mL of β-amyloid peptide (Calbiochem, USA) for 24 h at 37° C. After 24 h, cells were collected and washed twice with 1×PBS by centrifugation at 1200 rpm for 5 min at 4° C. Cell extracts were prepared in solubilization buffer (10 mM Tris, pH 7.2; 100 mM NaCl, 50 mM MgCl2, 1% Triton X-100). The cell extracts were used as samples for measuring the acetylcholine esterase (AChE) activity.
Cell extract samples (100 μl) were dispensed into each well of 96-well microtitre plate. Fifty micro liters of DTNB (Dithiobisnitro benzoate) solution was added to each well and incubated for 5 min at room temperature. After incubation, 50 μl of acetyl choline iodide solution was added to each well and absorbance was read immediately at 405 nm for 12 min at 2 min intervals. A standard curve was constructed by using serial concentrations of acetyl cholinesterase (0-100 mU). Total protein present in 100 μl aliquot of cell extract was calculated by Bradford method and the enzyme activity was normalized and expressed as unit activity per milligram of protein.

[4] = Comparative bioavailability of LI01008 (bisdemethylcurcumin) and its composition (serum, HPLC); settings: oral, LI13124F1 450 mg/kg, LI01008 300 mg/kg
[5] = test system: Sprague Dawley rats; assay: Spatial learning and memory improvement, elevated radial arm maze (RAM); format: in vivo, rat; settings: positive control 150 mg/kg, vs control group
Text: The animal study protocol was approved by institutional animal ethics committee. Sprague Dawley rats were acclimatized for one week and healthy rats were selected for the study. The selected rats were pre-trained in elevated radial arm maze (RAM) adapted rats were allocated to various treatment groups each containing eight rats. After completion of pre-training, the oral treatment was initiated to the animals and continued daily up to two weeks. During this treatment phase the rats were placed on the RAM for 10 min each to recognize the food pellets present in the three different colored arms. During training the spatial learning was estimated by measuring various parameters like number of days required to learn the task, latency in finding food and number of wrong entries/attempts. After this treatment and training the animals were given rest without treatment or training for one week (3rd week). On 4th week, the animals were treated with allocated doses of test products and memory retention test was assessed using the same animals by measuring latency and number of wrong entries. The data was analyzed using ANOVA followed by a suitable post-hoc test.

Molecule: 3-O-acetyl-11-keto-β-boswellic acid
- % Inhibition at concentrations of 25 ng [1]: 9.64%
- % Inhibition at concentrations of 50 ng [1]: 16.07%
- % Inhibition at concentrations of 100 ng [1]: 27.5%
- IC50 [1]: >0.1 µg/mL
- IC50 [2]: 1.5 µM
- % inhibition in AChE activity ([3]; 100 ng/ml, Table 5): 41.67%

Molecule: CC(=O)O[C@@H]1CC[C@@]2(C)[C@@H](CC[C@]3(C)[C@@H]2CC=C2[C@@H]4CC(C)(C)CC[C@]4(C)CC[C@]23C)[C@@]1(C)C(=O)O [3-O-acetyl-α-boswellic acid]
- % Inhibition at concentrations of 25 ng [1]: 14.86%
- % Inhibition at concentrations of 50 ng [1]: 21.28%
- % Inhibition at concentrations of 100 ng [1]: 33.11%
- IC50 [1]: >0.1 µg/mL
- % inhibition in AChE activity ([3]; 100 ng/ml, Table 5): 29.22%

Molecule: CC(=O)O[C@@H]1CC[C@@]2(C)[C@@H](CC[C@]3(C)[C@@H]2CC=C2[C@@H]4[C@@H](C)[C@H](C)CC[C@]4(C)CC[C@]23C)[C@@]1(C)C(=O)O [3-O-acetyl-β-boswellic acid]
- % Inhibition at concentrations of 25 ng [1]: 36.29%
- % Inhibition at concentrations of 50 ng [1]: 40.32%
- % Inhibition at concentrations of 100 ng [1]: 52.02%
- IC50 [1]: 0.09177 µg/mL (≈ 0.184 µM)
- % inhibition in AChE activity ([3]; 100 ng/ml, Table 5): 37.34%

Molecule: C[C@H]1[C@H](C)CC[C@]2(C)CC[C@]3(C)C(=CC(=O)[C@@H]4[C@@]5(C)CC[C@@H](O)[C@](C)(C(=O)O)[C@@H]5CC[C@]43C)[C@H]12 [11-keto-β-boswellic acid]
- % Inhibition at concentrations of 25 ng [1]: 11.82%
- % Inhibition at concentrations of 50 ng [1]: 16.36%
- % Inhibition at concentrations of 100 ng [1]: 24.55%
- IC50 [1]: >0.1 µg/mL
- % inhibition in AChE activity ([3]; 100 ng/ml, Table 5): 31.39%

Molecule: O=C(/C=C/c1ccc(O)c(O)c1)CC(=O)/C=C/c1ccc(O)c(O)c1 [LI 01008, bisdemethylcurcumin]
- Serum concentration of bisdemethylcurcumin ([4]; time after admn. 0, suspension in 0.5% CMC): 0
- Serum concentration of bisdemethylcurcumin ([4]; time after admn. 0.5 (hours)): 0.07
- Serum concentration of bisdemethylcurcumin ([4]; time after admn. 1 (hours)): 0.1085
- Serum concentration of bisdemethylcurcumin ([4]; time after admn. 2 (hours)): 0.078
- Serum concentration of bisdemethylcurcumin ([4]; time after admn. 4 (hours)): 0.035
- Serum concentration of bisdemethylcurcumin ([4]; time after admn. 6 (hours)): 0.00535
- Serum concentration of bisdemethylcurcumin ([4]; time after admn. 8 (hours)): 0
- Serum concentration of bisdemethylcurcumin ([4]; time after admn. 12 (hours)): 0

Molecule: CN(C)C(=O)Oc1cccc([N+](C)(C)C)c1 [Neostigmin]
- % inhibition in AChE activity ([3]; 20 ng/ml, Table 4): 49.1% and 49.09%
- % inhibition in AChE activity ([3]; 20 ng/ml, Table 5): 54.65%

Molecule: NC(=O)CN1CCCC1=O [Piracetam]
- spatial learning (reduction in latency and Number of wrong entries) [5]: significant improvement

Molecule: CC1(C)CC[C@]2(C)CC[C@]3(C)C(=CC[C@@H]4[C@@]5(C)CC[C@@H](O)[C@](C)(C(=O)O)[C@@H]5CC[C@]43C)[C@@H]2C1 [α-boswellic acid]
- % Inhibition at concentrations of 25 ng [1]: 13.85%
- % Inhibition at concentrations of 50 ng [1]: 21.92%
- % Inhibition at concentrations of 100 ng [1]: 39.23%
- IC50 [1]: >0.1 µg/mL
- % inhibition in AChE activity ([3]; 100 ng/ml, Table 5): 38.42%

Molecule: C[C@H]1[C@H](C)CC[C@]2(C)CC[C@]3(C)C(=CC[C@@H]4[C@@]5(C)CC[C@@H](O)[C@](C)(C(=O)O)[C@@H]5CC[C@]43C)[C@H]12 [β-boswellic acid]
- % Inhibition at concentrations of 25 ng [1]: 16.75%
- % Inhibition at concentrations of 50 ng [1]: 21.23%
- % Inhibition at concentrations of 100 ng [1]: 31.37%
- IC50 [1]: >0.1 µg/mL
- % inhibition in AChE activity ([3]; 100 ng/ml, Table 5): 46.54%
